# From US20180009797A1, “AZA-ARYL 1H-PYRAZOL-1-YL BENZENE SULFONAMIDES” (ChemoCentryx, Inc., priority 2016, published 2018)
# pEC50: −log10 of the molar value.
# Molecular target: T1, CCR(9) (Homo sapiens, UniProt P51686)
# T1 construct: CCR(9)-expressing cells such as T cell line MOLT-4 cells; host or cells: MOLT-4 T cell line
# T1 sequence (P51686 1-369): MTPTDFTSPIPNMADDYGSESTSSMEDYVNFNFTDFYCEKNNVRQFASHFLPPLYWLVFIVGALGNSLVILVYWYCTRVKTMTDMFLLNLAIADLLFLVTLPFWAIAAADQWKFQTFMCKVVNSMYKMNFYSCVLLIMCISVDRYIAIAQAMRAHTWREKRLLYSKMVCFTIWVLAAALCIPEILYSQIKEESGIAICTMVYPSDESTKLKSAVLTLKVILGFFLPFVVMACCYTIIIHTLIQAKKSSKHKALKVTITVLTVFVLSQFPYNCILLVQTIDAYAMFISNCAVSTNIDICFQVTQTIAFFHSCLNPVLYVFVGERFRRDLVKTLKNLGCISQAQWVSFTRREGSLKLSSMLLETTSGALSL
# Assay: serum chemotaxis (serum migration) assay, MOLT-4 cells in human serum, TECK
# Type: cell-based
# Conditions: read-out: A2
# Procedure: In vitro cell chemotaxis assays can be performed (but are not limited to this format) using the 96-well microchamber (called ChemoTX™). The ChemoTX™ system is well known to those skilled in the art as a type of chemotactic/cell migration instrument. In this assay, CCR(9)-expressing cells (such as MOLT-4) are first incubated with a compound of interest, such as a possible CCR(9) antagonist at increasing concentrations. Typically, fifty thousand cells per well are used, but the amount can range from 10^3-10^6 cells per well. The chemokine ligand (for example, CCR(9) ligand TECK, typically at 50 nM (but can range from 5-100 nM)), is placed at the lower chamber and the migration apparatus is assembled. Twenty microliters of test compound-treated cells are then placed onto the membrane. Migration is allowed to take place at 37° C. for a period of time, typically 2.5 hours for CCR(9). At the end of the incubation, the number of cells that migrated across the membrane into the lower chamber is then quantified. The efficacy of a compound as an inhibitor of chemokine-mediated cell migration can be calculated as an IC50 (the concentration needed to reduce cell migration by 50%) or IC90 (for 90% inhibition).
# MOLT-4 cells were obtained from the American Type Culture Collection (Manassas, Va.) and cultured in RPMI tissue culture medium supplemented with 10% fetal calf serum (FCS) in a humidified 5% CO2 incubator at 37° C. Recombinant human chemokine proteins TECK was obtained from R&D Systems (Minneapolis, Minn.). ChemoTX® chemotaxis microchambers were purchased from Neuro Probe (Gaithersburg, Md.). CyQUANT® cell proliferation kits were purchased from Molecular Probes (Eugene, Oreg.). Calcium indicator dye Fluo-4 AM was purchased from Molecular Devices (Mountain View, Calif.).
# A serum chemotaxis assay was used to determine the efficacy of potential receptor antagonists at blocking the migration mediated through chemokine receptors, such as CCR(9). This assay was performed using the ChemoTX® microchamber system with a 5-μm pore-sized polycarbonate membrane. MOLT-4 cells were collected by centrifugation at 400×g at room temperature, then suspended at 50 million/ml in human serum, containing 50 mM HEPES (final pH of 7.2). The compound being tested or an equivalent volume of its solvent (DMSO) was then added to the cell/serum mixture at a final DMSO concentration of 0.125% (v/v), and this mixture was then incubated together at 37° C. for one hour. Separately, recombinant human TECK was diluted with chemotaxis buffer (HBSS+0.1% BSA), generally spanning a range from 0.1 nM to 500 nM, after which 29 μl of diluted chemokine was placed in the lower wells of the ChemoTX® plate. The 5-μm (pore size) polycarbonate membrane was placed onto the plate, and 20 μL of the cell/compound mixture was transferred onto each well of the membrane. The plates were incubated at 37° C. for 90 minutes, after which the polycarbonate membranes were removed and 5 μl of the DNA-intercalating agent CyQUANT (Invitrogen, Carlsbad, Calif.) was added to the lower wells. The amount of fluorescence, corresponding to the number of migrated cells, was measured using a Spectrafluor Plus plate reader (TECAN, San Jose, Calif.).
# The A2 values were calculated from the following equation, comparing the efficacy of the test compound with that of the DMSO-only control at equi-active chemokine levels:
# Log(A2)=log [drug(M)]−log [(A′/A)−1]
# where A reflects the potency of the agonist in the absence of antagonist and […] reflects the potency of the agonist in the presence of antagonist at a given concentration of drug ([drug(M)]).
row,pEC50,Structure (SMILES)
1,5.60 to 6.30,CC(C)(C)c1ccc(S(=O)(=O)Nc2cc(C(F)(F)F)nn2-c2cccc3ncccc23)cc1
2,5.60 to 6.30,Cc1cc(NS(=O)(=O)c2ccc(C(C)(C)C)cc2)n(-c2cccc3cnccc23)n1
3,5.60 to 6.30,CC(C)c1ccc(S(=O)(=O)Nc2cc(C(F)F)nn2-c2cccc3ncccc23)cc1
4,5.60 to 6.30,CC(C)(C)c1ccc(S(=O)(=O)Nc2cc(C#N)nn2-c2cccc3ncccc23)cc1
5,> 6.30,CC(C)(C)c1ccc(S(=O)(=O)Nc2cc(CF)nn2-c2cccc3ncccc23)cc1
6,< 5.60,CC(C)(C)c1ccc(S(=O)(=O)Nc2ccnn2-c2cccc3ncccc23)cc1
7,5.60 to 6.30,CC(C)Oc1ccc(S(=O)(=O)Nc2cc(CF)nn2-c2cccc3ncccc23)cc1
8,5.60 to 6.30,Cc1cc(NS(=O)(=O)c2ccc(C(C)(C)C)cc2)n(-c2nccc3ccccc23)n1
9,> 6.30,COc1ccc(-n2nc(C)cc2NS(=O)(=O)c2ccc(C(C)(C)C)c(F)c2)c2cccnc12
10,5.60 to 6.30,Cc1cc(NS(=O)(=O)c2ccc(OC(C)C)cc2)n(-c2cccc3cnccc23)n1
11,5.60 to 6.30,CC(C)c1ccc(S(=O)(=O)Nc2cc(C(F)(F)F)nn2-c2cccc3cnccc23)cc1
12,> 6.30,CC(C)(C)c1ccc(S(=O)(=O)Nc2cc(C(F)F)nn2-c2cccc3ncccc23)cc1
13,> 6.30,CC(C)Oc1ccc(S(=O)(=O)Nc2cc(C(F)F)nn2-c2cccc3ncccc23)cc1
14,5.60 to 6.30,Cc1cc(NS(=O)(=O)c2ccc(C(C)(C)C)cc2)n(-c2cccc3c(N)nccc23)n1
15,5.60 to 6.30,Cc1cc(NS(=O)(=O)c2ccc(C(C)(C)C)cc2)n(-c2nncc3ccccc23)n1
16,5.60 to 6.30,Cc1cc(NS(=O)(=O)c2ccc(C(C)C)cc2)n(-c2cccc3cnccc23)n1

row,pEC50,Structure (SMILES)
1,5.60 to 6.30,CC(C)c1ccc(S(=O)(=O)Nc2cc(C(F)(F)F)nn2-c2cccc3ncccc23)cc1
2,5.60 to 6.30,Cc1cc(NS(=O)(=O)c2ccc(C(C)(C)C)cc2)n(-c2nccc3ncccc23)n1
3,5.60 to 6.30,Cc1cc(NS(=O)(=O)c2ccc(C(C)(C)C)cc2)n(-c2n[nH]c(=O)c3ccccc23)n1
4,5.60 to 6.30,Cc1cc(NS(=O)(=O)c2ccc(C(C)(C)C)cc2)n(-c2ccc(C)c3ncccc23)n1
5,5.60 to 6.30,COc1cnc(-n2nc(C)cc2NS(=O)(=O)c2ccc(C(C)(C)C)cc2)c2ccccc12
6,5.60 to 6.30,Cc1cc(NS(=O)(=O)c2ccc(C(C)(C)C)cc2)n(-c2ccnc3c(F)cccc23)n1
7,> 6.30,Cc1cc(NS(=O)(=O)c2ccc(C(C)(C)C)c(F)c2)n(-c2cccc3ncccc23)n1
8,> 6.30,Cc1cc(NS(=O)(=O)c2ccc(C(C)(C)C)c(F)c2)n(-c2cccc3nc(N)ccc23)n1
9,5.60 to 6.30,Cc1cc(NS(=O)(=O)c2ccc(C(C)(C)C)cc2)n(-c2cccc3c2ccc[n+]3[O-])n1
10,5.60 to 6.30,Cc1cc(NS(=O)(=O)c2ccc(C(C)(C)C)c(Cl)c2)n(-c2cccc3ncccc23)n1
11,< 5.60,Cc1cc(NS(=O)(=O)c2ccc(C(C)(C)C)cc2)n(-c2cccc3c[n+]([O-])ccc23)n1
12,> 6.30,Cc1cc(NS(=O)(=O)c2cc(F)c(C(C)(C)C)c(F)c2)n(-c2cccc3ncccc23)n1
13,> 6.30,COc1ccc(-n2nc(C)cc2NS(=O)(=O)c2ccc(C(C)(C)C)cc2)c2cccnc12
14,> 6.30,Cc1cc(NS(=O)(=O)c2ccc(C(C)(C)C)c(F)c2)n(-c2ccc(Br)c3ncccc23)n1
15,> 6.30,Cc1cc(NS(=O)(=O)c2ccc(C(C)(C)C)cc2)n(-c2ccc(N)c3ncccc23)n1
16,5.60 to 6.30,Cc1cc(NS(=O)(=O)c2ccc(C(C)(C)C)cc2)n(-c2ccc(C#N)c3ncccc23)n1

# The next lines start with the compound.
row,Structure (SMILES),pEC50
1,Cc1cc(NS(=O)(=O)c2ccc(OCC(C)C)cc2)n(-c2cccc3ncccc23)n1,< 5.60
2,Cc1cc(NS(=O)(=O)c2ccc(OC(C)C)cc2)n(-c2cccc3ncccc23)n1,5.60 to 6.30
3,Cc1ccc2c(-n3nc(C)cc3NS(=O)(=O)c3ccc(C(C)(C)C)cc3)cccc2n1,> 6.30
4,Cc1cc(NS(=O)(=O)c2ccc(C(C)C)cc2)n(-c2cccc3ncccc23)n1,5.60 to 6.30
5,Cc1cc(NS(=O)(=O)c2ccc(OC(F)(F)F)cc2)n(-c2cccc3ncccc23)n1,5.60 to 6.30
6,CCC(C)(C)c1ccc(S(=O)(=O)Nc2cc(C)nn2-c2cccc3ncccc23)cc1,5.60 to 6.30
7,CC(C)Oc1ccc(S(=O)(=O)Nc2cc(C(F)(F)F)nn2-c2cccc3cnccc23)cc1,5.60 to 6.30
8,COCc1cc(NS(=O)(=O)c2ccc(C(C)(C)C)cc2)n(-c2cccc3ncccc23)n1,> 6.30
9,Cc1cc(NS(=O)(=O)c2ccc(C(C)(C)C)cc2)n(-c2ccc(Cl)c3ncccc23)n1,> 6.30
10,Cc1cc(NS(=O)(=O)c2ccc(C(C)(C)C)cc2F)n(-c2cccc3ncccc23)n1,5.60 to 6.30
11,Cc1cc(NS(=O)(=O)c2ccc(C(C)(C)C)cc2)n(-c2cccc3nc(N)ccc23)n1,> 6.30
12,Cc1cc(NS(=O)(=O)c2ccc(C(C)(C)C)cc2)n(-c2ccnc3ccccc23)n1,5.60 to 6.30
13,Cc1cc(NS(=O)(=O)c2ccc(C(C)(C)C)cc2)n(-c2cncc3ccccc23)n1,5.60 to 6.30
14,CC(C)Oc1ccc(S(=O)(=O)Nc2cc(C(F)(F)F)nn2-c2cccc3ncccc23)cc1,< 5.60
15,Cc1cc(NS(=O)(=O)c2ccc(C(C)(C)C)cc2)n(-c2cc(N)nc3ccccc23)n1,5.60 to 6.30
16,Cc1cc(NS(=O)(=O)c2ccc(C(C)(C)C)cc2)n(-c2cnnc3ccccc23)n1,5.60 to 6.30
17,Cc1cc(NS(=O)(=O)c2ccc(C(C)(C)C)cc2)n(-c2cnc(N)c3ccccc23)n1,5.60 to 6.30
18,Cc1cc(NS(=O)(=O)c2ccc(C(C)(C)C)cc2)n(-c2ncc(Cl)c3ccccc23)n1,< 5.60
19,CC(C)(C)c1ccc(S(=O)(=O)Nc2cc(C(F)F)nn2-c2cccc3ncccc23)cc1F,5.60 to 6.30
20,Cc1cc(-n2nc(C)cc2NS(=O)(=O)c2ccc(C(C)(C)C)cc2)c2ccccc2n1,5.60 to 6.30
21,Cc1cc(NS(=O)(=O)c2ccc(C(C)(C)C)c(F)c2)n(-c2ccc(N)c3ncccc23)n1,5.60 to 6.30
22,Cc1cc(NS(=O)(=O)c2ccc(C(C)(C)C)cc2)n(-c2ccnc3cc(F)ccc23)n1,5.60 to 6.30
23,CC(C)(C)c1ccc(S(=O)(=O)Nc2cc(CF)nn2-c2cccc3ncccc23)cc1F,> 6.30
24,Cc1cc(NS(=O)(=O)c2ccc(C(C)(C)C)cc2)n(-c2ccc(F)c3ncccc23)n1,5.60 to 6.30
25,CCOc1ccc(-n2nc(C)cc2NS(=O)(=O)c2ccc(C(C)(C)C)cc2)c2cccnc12,5.60 to 6.30
26,Cc1cc(NS(=O)(=O)c2ccc(C(C)(C)C)cc2)n(-c2cccc3ncccc23)n1,> 6.30
27,Cc1cc(-n2nc(C)cc2NS(=O)(=O)c2ccc(C(C)(C)C)cc2)c2cccnc2c1,5.60 to 6.30
28,Cc1cc(NS(=O)(=O)c2ccc(C(C)(C)C)cc2)n(-c2ccc(Br)c3ncccc23)n1,5.60 to 6.30
29,Cc1cc(NS(=O)(=O)c2ccc(OC(C)C)c(F)c2)n(-c2cccc3ncccc23)n1,5.60 to 6.30
30,Cc1cc(NS(=O)(=O)c2ccc(C(C)(C)C)c(F)c2)n(-c2ccc(C#N)c3ncccc23)n1,> 6.30
